From ChEMBL document CHEMBL1201862, “PubChem BioAssay data set” (2004)
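48-hour exposure; five concentrations; linearly interpolated endpoints. GI50 is the concentration that inhibits growth by half.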 Activity calls are given as the source filed them. Rule as the data show it: active = GI50 up to about 1.1 µM and inactive = higher.

Legend:
Assay in all cases: inhibition of tumour cell growth, NCI panel, 48 h
[1] = test system: OVCAR-5
[2] = test system: IGROV-1
[3] = test system: MOLT-4
[4] = test system: OVCAR-4
[5] = test system: UACC-257
[6] = test system: NCI-H23
[7] = test system: LOX IMVI
[8] = test system: SNB-78
[9] = test system: SR
[10] = test system: T47D
[11] = test system: XF498
[12] = test system: SF-539
[13] = test system: Hs-578T
[14] = test system: NCI-H522
[15] = test system: HCT-15
[16] = test system: M19-MEL
[17] = test system: CCRF-CEM
[18] = test system: MCF7
[19] = test system: BT-549
[20] = test system: HOP-92
[21] = test system: RXF 393
[22] = test system: HT-29
[23] = test system: ACHN
[24] = test system: MDA-MB-435
[25] = test system: DU-145
[26] = test system: HOP-62
[27] = test system: KM12
[28] = test system: SF-295
[29] = test system: SNB-75
[30] = test system: SF-268
[31] = test system: 786-0
[32] = test system: UO-31
[33] = test system: DLD-1
[34] = test system: HCC 2998
[35] = test system: NCI/ADR-RES
[36] = test system: PC-3
[37] = test system: SK-MEL-5
[38] = test system: A498
[39] = test system: U-251
[40] = test system: TK-10
[41] = test system: MDA-MB-231
[42] = test system: DMS-114
[43] = test system: SK-MEL-28
[44] = test system: M14
[45] = test system: Malme-3M
[46] = test system: K562
[47] = test system: MDA-N
[48] = test system: OVCAR-8
[49] = test system: CAKI-1
[50] = test system: KM-20L2
[51] = test system: UACC-62
[52] = test system: SNB-19
[53] = test system: DMS-273
[54] = test system: HOP-18
[55] = test system: SN12C
[56] = test system: SK-MEL-2
[57] = test system: SK-OV-3
[58] = test system: COLO 205
[59] = test system: SW-620
[60] = test system: RPMI-8226
[61] = test system: A549
[62] = test system: NCI-H226
[63] = test system: NCI-H460
[64] = test system: EKVX
[65] = test system: HCT-116
[66] = test system: OVCAR-3
[67] = test system: HL-60

## COC1/C=C/O[C@@]2(C)Oc3c(C)c(O)c4c(O)c(cc(O)c4c3C2=O)NC(=O)/C(C)=C\C=C\[C@H](C)C(O)[C@@H](C)[C@@H](O)[C@@H](C)[C@H](OC(C)=O)[C@@H]1C (stereo partly drawn)
[1]
  GI50: 38.5 µM (inactive)
[2]
  GI50: 22.7 µM (inactive)
[3]
  GI50: 6.31 µM (inactive)
[4]
  GI50: 13.1 µM (inactive)
[5]
  GI50: 13 µM (inactive)
[6]
  GI50: 13.5 µM (inactive)
[7]
  GI50: 14 µM (inactive)
[8]
  GI50: 32.8 µM (inactive)
[9]
  GI50: 6.15 µM (inactive)
[10]
  GI50: 17.7 µM (inactive)
[11]
  GI50: 14.8 µM (inactive)
[12]
  GI50: 25.9 µM (inactive)
[13]
  GI50: 33 µM (inactive)
[14]
  GI50: 5.3 µM (inactive)
[15]
  GI50: 18.6 µM
[16]
  GI50: 12.1 µM (inactive)
[17]
  GI50: 2.06 µM (inactive)
[18]
  GI50: 10.2 µM (inactive)
[19]
  GI50: 18.5 µM (inactive)
[20]
  GI50: 10.2 µM (inactive)
[21]
  GI50: 11.2 µM (inactive)
[22]
  GI50: 14.9 µM (inactive)
[23]
  GI50: 19.4 µM (inactive)
[24]
  GI50: 19.9 µM (inactive)
[25]
  GI50: 24 µM (inactive)
[26]
  GI50: 117 µM (inactive)
[27]
  GI50: 27.2 µM (inactive)
[28]
  GI50: 94.8 µM (inactive)
[29]
  GI50: 36.8 µM (inactive)
[30]
  GI50: 24.5 µM (inactive)
[31]
  GI50: 15.2 µM (inactive)
[32]
  GI50: 51.3 µM (inactive)
[33]
  GI50: 10.1 µM (inactive)
[34]
  GI50: 18.8 µM (inactive)
[35]
  GI50: 32.4 µM (inactive)
[36]
  GI50: 16 µM (inactive)
[37]
  GI50: 32.1 µM (inactive)
[38]
  GI50: 38.2 µM (inactive)
[39]
  GI50: 44.2 µM (inactive)
[40]
  GI50: 20.1 µM (inactive)
[41]
  GI50: 23.3 µM (inactive)
[42]
  GI50: 7.91 µM (inactive)
[43]
  GI50: 22.5 µM (inactive)
[44]
  GI50: 16.1 µM (inactive)
[45]
  GI50: 30.6 µM (inactive)
[46]
  GI50: 9.89 µM (inactive)
[47]
  GI50: 14.5 µM (inactive)
[48]
  GI50: 18.7 µM (inactive)
[49]
  GI50: 37.9 µM (inactive)
[50]
  GI50: 13.3 µM (inactive)
[51]
  GI50: 18.1 µM (inactive)
[52]
  GI50: 82.2 µM (inactive)
[53]
  GI50: 17.9 µM (inactive)
[54]
  GI50: 17.7 µM (inactive)
[55]
  GI50: 14.1 µM (inactive)
[56]
  GI50: 13.8 µM (inactive)
[57]
  GI50: 110 µM (inactive)
[58]
  GI50: 2.65 µM (inactive)

## Cc1cccc(/C=N/C23CC4CC(CC(C4)C2)C3)c1
[1]
  GI50: > 100 µM (inactive)
[59]
  GI50: > 100 µM (inactive)
[2]
  GI50: > 100 µM (inactive)
[3]
  GI50: > 100 µM (inactive)
[4]
  GI50: > 100 µM (inactive)
[5]
  GI50: > 100 µM (inactive)
[6]
  GI50: > 100 µM (inactive)
[7]
  GI50: > 100 µM (inactive)
[60]
  GI50: > 100 µM (inactive)
[8]
  GI50: > 100 µM (inactive)
[11]
  GI50: > 100 µM (inactive)
[12]
  GI50: > 100 µM (inactive)
[14]
  GI50: > 100 µM (inactive)
[15]
  GI50: > 100 µM
[16]
  GI50: > 100 µM (inactive)
[17]
  GI50: > 100 µM (inactive)
[20]
  GI50: > 100 µM (inactive)
[21]
  GI50: > 100 µM (inactive)
[22]
  GI50: > 100 µM (inactive)
[61]
  GI50: > 100 µM (inactive)
[23]
  GI50: > 100 µM (inactive)
[62]
  GI50: > 100 µM (inactive)
[26]
  GI50: > 100 µM (inactive)
[27]
  GI50: > 100 µM (inactive)
[28]
  GI50: > 100 µM (inactive)
[29]
  GI50: > 100 µM (inactive)
[30]
  GI50: > 100 µM (inactive)
[31]
  GI50: > 100 µM (inactive)
[32]
  GI50: > 100 µM (inactive)
[63]
  GI50: > 100 µM (inactive)
[33]
  GI50: > 100 µM (inactive)
[64]
  GI50: > 100 µM (inactive)
[65]
  GI50: > 100 µM (inactive)
[34]
  GI50: > 100 µM (inactive)
[66]
  GI50: > 100 µM (inactive)
[37]
  GI50: > 100 µM (inactive)
[38]
  GI50: > 100 µM (inactive)
[39]
  GI50: > 100 µM (inactive)
[40]
  GI50: > 100 µM (inactive)
[42]
  GI50: > 100 µM (inactive)
[43]
  GI50: > 100 µM (inactive)
[44]
  GI50: > 100 µM (inactive)
[45]
  GI50: > 100 µM (inactive)
[67]
  GI50: > 100 µM (inactive)
[46]
  GI50: > 100 µM (inactive)
[48]
  GI50: > 100 µM (inactive)
[49]
  GI50: > 100 µM (inactive)
[50]
  GI50: > 100 µM (inactive)
[51]
  GI50: > 100 µM (inactive)
[52]
  GI50: > 100 µM (inactive)
[53]
  GI50: > 100 µM (inactive)
[54]
  GI50: > 100 µM (inactive)
[55]
  GI50: > 100 µM (inactive)
[56]
  GI50: > 100 µM (inactive)
[57]
  GI50: > 100 µM (inactive)
[58]
  GI50: > 100 µM (inactive)

## O=c1n(C2CCCCC2)c(=C(Cl)Cl)c(=C(Cl)Cl)n1C1CCCCC1
[1]
  GI50: > 100 µM (inactive)
[59]
  GI50: > 100 µM (inactive)
[2]
  GI50: > 100 µM (inactive)
[3]
  GI50: > 100 µM (inactive)
[4]
  GI50: > 100 µM (inactive)
[5]
  GI50: 54.5 µM (inactive)
[6]
  GI50: > 100 µM (inactive)
[7]
  GI50: > 100 µM (inactive)
[60]
  GI50: 34.6 µM (inactive)
[8]
  GI50: 85.1 µM (inactive)
[9]
  GI50: > 100 µM (inactive)
[11]
  GI50: > 100 µM (inactive)
[12]
  GI50: > 100 µM (inactive)
[14]
  GI50: > 100 µM (inactive)
[15]
  GI50: > 100 µM
[16]
  GI50: > 100 µM (inactive)
[17]
  GI50: > 100 µM (inactive)
[21]
  GI50: > 100 µM (inactive)
[22]
  GI50: > 100 µM (inactive)
[61]
  GI50: > 100 µM (inactive)
[23]
  GI50: > 100 µM (inactive)
[62]
  GI50: > 100 µM (inactive)
[26]
  GI50: > 100 µM (inactive)
[27]
  GI50: > 100 µM (inactive)
[28]
  GI50: > 100 µM (inactive)
[29]
  GI50: > 100 µM (inactive)
[30]
  GI50: > 100 µM (inactive)
[31]
  GI50: > 100 µM (inactive)
[32]
  GI50: > 100 µM (inactive)
[63]
  GI50: > 100 µM (inactive)
[33]
  GI50: > 100 µM (inactive)
[64]
  GI50: > 100 µM (inactive)
[65]
  GI50: 85.7 µM (inactive)
[34]
  GI50: > 100 µM (inactive)
[66]
  GI50: > 100 µM (inactive)
[37]
  GI50: > 100 µM (inactive)
[38]
  GI50: > 100 µM (inactive)
[39]
  GI50: > 100 µM (inactive)
[40]
  GI50: > 100 µM (inactive)
[42]
  GI50: 53.1 µM (inactive)
[43]
  GI50: > 100 µM (inactive)
[45]
  GI50: > 100 µM (inactive)
[67]
  GI50: 39.6 µM (inactive)
[46]
  GI50: > 100 µM (inactive)
[48]
  GI50: > 100 µM (inactive)
[50]
  GI50: > 100 µM (inactive)
[51]
  GI50: > 100 µM (inactive)
[52]
  GI50: > 100 µM (inactive)
[53]
  GI50: > 100 µM (inactive)
[54]
  GI50: > 100 µM (inactive)
[55]
  GI50: > 100 µM (inactive)
[56]
  GI50: > 100 µM (inactive)
[57]
  GI50: > 100 µM (inactive)
[58]
  GI50: > 100 µM (inactive)
